Experimental data published in patent US20080171740A1, “Chemical Compounds” (SMITHKLINE BEECHAM CORPORATION, priority 2004, published 2008).
pIC50: −log10 of the molar value. Read-outs that look alike come from different tables or passages of the source.

Assays:
[1] = test system: HIV-1 gp160 (HXB2 strain) mediated fusion with HOS (hCXCR4/hCCR5/hCD4/pHIV-LTR-luciferase) cells; assay: Cell/cell fusion assay (HEK-293 expressing HIV-1 tat, rev, gp160 with HOS hCXCR4/hCCR5/hCD4/pHIV-LTR-luciferase cells); assay type: cell-based; conditions: Homo sapiens, HEK293; luciferase readout after 24 h; read-out: Fusion assay (pIC50) (converted)
Excerpt: The complete coding sequences of HIV-1 tat (GenBank Accession No. X07861) and rev (GenBank Accession No. M34378) were cloned into pcDNA3.1 expression vectors containing G418 and hygromycin resistance genes, respectively. The complete coding sequence of the HIV-1 (HXB2 strain) gp160 envelope gene (nucleotide bases 6225-8795 of GenBank Accession No. K03455) was cloned into plasmid pCRII-TOPO. The three HIV genes were additionally inserted into the baculovirus shuttle vector, pFastBacMam1, under the transcriptional control of the CMV promoter. A construction of the pHIV-I LTR containing mutated NFkB sequences linked to the luciferase reporter gene was prepared by digesting pcDNA3.1, containing the G418 resistance gene, with Nru I and Bam HI to remove the CMV promoter. LTR-luc was then cloned into the Nru I/Bam HI sites of the plasmid vector. Plasmid preparations were performed after the plasmids were amplified in Escherichia coli strain DH5-alpha. The fidelity of the inserted sequences was confirmed by double-strand nucleotide sequencing using an ABI Prism Model 377 automated sequencer.
Recombinant BacMam baculoviruses were constructed from pFastBacMam shuttle plasmids by using the bacterial cell-based Bac-to-Bac system. Viruses were propagated in Sf9 (Spodoptera frugiperda) cells cultured in Hink's TNM-FH Insect media supplemented with 10% (v/v) fetal bovine serum and 0.1% (v/v) pluronic F-68 according to established protocols.
Human osteosarcoma (HOS) cells that naturally express human CXCR4 were transfected with human CCR5, human CD4 and the pHIV-LTR-luciferase plasmid using FuGENE 6 transfection reagent. Single cells were isolated and grown under selection condition in order to generate a stable HOS (hCXCR4/hCCR5/hCD4/pHIV-LTR-luciferase) clonal cell line. The cells were maintained in Dulbeccos modified Eagles media supplemented with 10% fetal calf serum (FCS), G418 (400 ug/ml), puromycin (1 ug/ml), mycophenolic acid (40 ug/ml), xanthine (250 ug/ml) and hypoxanthine (13.5 ug/ml) to maintain a selection pressure for cells expressing the LTR-luciferase, hCCR5 and hCD4, respectively. Human embryonic kidney (HEK-293) cells stably transfected to express the human macrophage scavenging receptor (Class A, type 1; GenBank Accession No. D90187), were maintained in DMEM/F-12 media (1:1) supplemented with 10% FCS and 1.5 ug/ml puromycin. The expression of this receptor by the HEK-293 cells enhances their ability to stick to tissue culture treated plasticware.
HEK-293 cells were harvested using enzyme-free cell dissociation buffer. The cells were resuspended in DMEM/F-12 media supplemented with 10% FCS and 1.5 ug/ml and counted. Tranductions were performed by direct addition of BacMam baculovirus containing insect cell media to cells. The cells were simultaneously transduced with BacMam baculovirus expressing HIV-1 tat, HIV-1 rev and HIV-1 gp160 (from the HXB2 HIV strain). Routinely an MOI of 10 of each virus was added to the media containing the cells. 2 mM butyric acid was also added to the cells at this stage to increase protein expression in transduced cells. The cells were subsequently mixed and seeded into a flask at 30 million cells per T225. The cells were incubated at 37° C., 5% CO2, 95% humidity for 24 h to allow for protein expression.
HEK and HOS cells were harvested in DMEM/F-12 media containing 2% FCS and DMEM media containing 2% FCS, respectively, with no selection agents added. Compounds were plated as 1 ul spots in 100% DMSO on a 96-well CulturPlate plates. HOS cells (50 ul) were added first to the wells, followed immediately by the HEK cells (50 ul). The final concentration of each cell type was 20,000 cells per well. Following these additions, the cells were returned to a tissue culture incubator (37° C.; 5% CO2/95% air) for an additional 24 h.
Following the 24 h incubation, total cellular luciferase activity was measured using the LucLite Plus assay kit (Packard, Meridien, Conn.). […]

[2] = biological target: T1, CXCR4 receptor (Homo sapiens, UniProt P61073); assay: Functional FLIPR assay (block of SDF-1 alpha induced [Ca2+]i change); assay type: cell-based; conditions: HEK-293 cells with human CXCR4 BacMam and Gqi5 BacMam; antagonism of SDF-1 alpha; read-out: Functional assay (pIC50) (converted)
T1 construct: expressed in transfected cells; host or cells: HEK-293 cells (stably expressing human macrophage scavenging receptor) transduced with human CXCR4 BacMam and Gqi5 BacMam
Description: Human embryonic kidney (HEK-293) cells were maintained and harvested as described above. Cells were plated in 96-well, black clear bottom, poly-lysine coated plates at a concentration of 40,000 cells per well in a final volume of 100 ul containing human CXCR4 BacMam (MOI=25) and Gqi5 BacMam (MOI=12.5). The cells were incubated at 37° C., 5% CO2, 95% humidity for 24 h to allow for protein expression.
After the required incubation time the cells were washed once with 50 ul of fresh serum-free DMEM/F12 media containing probenicid. 50 ul of dye solution was then added to the cells (Calcium Plus Assay Kit Dye; Molecular Devices) was dissolved in 200 ml of the above probenicid/BSA containing media and incubated for 1 h. Cell plates were transferred to a Fluorometric Imaging Plate Reader (FLIPR). Upon addition the effect of the compounds on the change in [Ca^2+]i was examined to determine if the compounds were agonists or antagonists (ability to block SDF-1 alpha activity) at the CXCR4 receptor. IC50 values are determined and pKb values are calculated using the Leff and Dougall equation: KB=IC50/((2+([agonist]/EC50̂b)̂1/b -1) Where IC50 is that defined by the antagonist concentration-response curve [agonist] is the EC80 concentration of agonist used EC50 is that defined by the agonist concentration-response curve b is the slope of the agonist concentration-response curve.

[3] = test system: HIV-1 IIIB strain, T-tropic (CXCR4 utilizing); assay: HOS HIV-1 infectivity assay; assay type: cell-based; conditions: for IC50: HOS, read-out: HOS (3B) (μM)
Description: (§1) Compounds were profiled against two HIV-1 viruses, the M-tropic (CCR5 utilizing) Ba-L strain and the T-tropic (CXCR4 utilizing) IIIB strain. Both viruses were propagated in human peripheral blood lymphocytes. Compounds were tested for there ability to block infection of the HOS cell line (expressing hCXCR4/hCCR5/hCD4/pHIV-LTR-luciferase) by either HIV-1 Ba-L or HIV-1 IIIB. Compound cytotoxicity was also examined in the absence of virus addition.
(§2) HOS cells (expressing hCXCR4/hCCR5/hCD4/pHIV-LTR-luciferase) were harvested and diluted in Dulbeccos modified Eagles media supplemented with 2% FCS and non-essential amino acid to a concentration of 60,000 cells/ml. The cells were plated into 96-well plates (100 ul per well) and the plates were placed in a tissue culture incubator (37° C.; 5% CO2/95% air) for a period of 24 h.
(§3) Subsequently, 50 ul of the desired drug solution (4 times the final concentration) was added to each well and the plates were returned to the tissue culture incubator (37° C.; 5% CO2/95% air) for 1 h. Following this incubation 50 ul of diluted virus was added to each well (approximately 2 million RLU per well of virus). The plates were returned to the tissue culture incubator (37° C.; 5% CO2/95% air) and were incubated for a further 96 h.
(§4) Following this incubation the endpoint for the virally infected cultures was quantified following addition of Steady-Glo Luciferase assay system reagent (Promega, Madison, Wis.). Cell viability or non-infected cultures was measured using a CellTiter-Glo luminescent cell viability assay system (Promega, Madison, Wis.). All luminescent readouts are performed on a Topcount luminescence detector (Packard, Meridien, Conn.).

[4] = Compound cytotoxicity in the absence of virus (CellTiter-Glo); assay type: cell-based; conditions: human; non-infected HOS cultures, cell viability; read-out: Cytotox (pIC50) (converted)
Description: as §1, §2, §3, §4

[5] = test system: T-tropic HIV; conditions: patients that are dual tropic or where only the T-tropic form is present; cited from earlier work
[6] = Human immunodeficiency virus 1, IIIB, HOS HIV anti-infectivity assay, strain not named in Table 2, read-out: Activity Level
[7] = Human immunodeficiency virus 1, HOS cells, HIV-1 IIIB, 96 h, luciferase, read-out: HOS (3B)
[8] = Human immunodeficiency virus 1, IIIB, 96 h
[9] = Human immunodeficiency virus 1, IIIB, read-out: Activity Level

T1 sequence (P61073 whole entry): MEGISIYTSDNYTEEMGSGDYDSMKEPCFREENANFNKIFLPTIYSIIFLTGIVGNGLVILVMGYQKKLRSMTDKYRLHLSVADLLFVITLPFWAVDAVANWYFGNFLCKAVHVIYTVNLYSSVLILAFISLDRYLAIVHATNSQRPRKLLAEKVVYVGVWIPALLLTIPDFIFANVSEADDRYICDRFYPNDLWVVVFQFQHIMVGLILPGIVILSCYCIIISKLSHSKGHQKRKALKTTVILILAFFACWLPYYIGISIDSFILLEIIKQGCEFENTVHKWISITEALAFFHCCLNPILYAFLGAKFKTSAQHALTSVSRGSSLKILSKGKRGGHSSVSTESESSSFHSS

NCCCCN(Cc1cn2c(C(F)(F)F)cccc2n1)C1CCCc2cccnc21 (stereo not shown) [Example 8, N-(5,6,7,8-Tetrahydro-8-quinolinyl)-N-{[5-(trifluoromethyl)imidazo[1,2-a]pyridin-2-yl]methyl}-1,4-butanediamine]
IC50 [1]: 174 nM
IC50 [2]: 19.5 nM
pIC50 [3, 6]: > 7.00
pIC50 [3, 7]: 7.35
IC50 at 96 h [4]: > 100 µM

Cc1ccc2nc(CN(CCCCN)C3CCCc4cccnc43)cn2c1 (stereo not shown) [Example 4, N-[(6-Methylimidazo[1,2-a]pyridin-2-yl)methyl]-N-(5,6,7,8-tetrahydro-8-quinolinyl)-1,4-butanediamine]
IC50 [1]: 97.7 nM
IC50 [2]: 52.5 nM
pIC50 [3, 6]: > 7.00
pIC50 [3, 7]: 7.24
IC50 at 96 h [4]: > 100 µM

NCCCCN(Cc1cn2ccccc2n1)C1CCCc2cccnc21 (stereo not shown) [Example 1, N-(Imidazo[1,2-a]pyridin-2-ylmethyl)-N-(5,6,7,8-tetrahydro-8-quinolinyl)-1,4-butanediamine]
IC50 [1]: 79.4 nM
IC50 [2]: 33.9 nM
pIC50 [3, 6]: > 7.00
pIC50 [3, 7]: 7.38
IC50 at 96 h [4]: > 100 µM

NCCCCN(Cc1cn2c(N3CCCC3)cccc2n1)C1CCCc2cccnc21 (stereo not shown) [Example 21, N-{[5-(1-Pyrrolidinyl)imidazo[1,2-a]pyridin-2-yl]methyl}-N-(5,6,7,8-tetrahydro-8-quinolinyl)-1,4-butanediamine]
IC50 [1]: 102 nM
IC50 [2]: 20 nM
IC50 [3, 8]: 0.038 µM
pIC50 [3, 9]: > 7.00
IC50 at 96 h [4]: > 100 µM

COc1cccc2nc(CN(CCCCN)C3CCCc4cccnc43)cn12 (stereo not shown) [Example 25, N-{[5-(Methyloxy)imidazo[1,2-a]pyridin-2-yl]methyl}-N-(5,6,7,8-tetrahydro-8-quinolinyl)-1,4-butanediamine]
IC50 [1]: 123 nM
IC50 [2]: 10.2 nM
pIC50 [3, 6]: > 7.00
pIC50 [3, 7]: 7.82
IC50 at 96 h [4]: > 100 µM

Cc1cc(Br)cn2cc(CN(CCCCN)C3CCCc4cccnc43)nc12 (stereo not shown) [Example 19, N-[(6-Bromo-8-methylimidazo[1,2-a]pyridin-2-yl)methyl]-N-(5,6,7,8-tetrahydro-8-quinolinyl)-1,4-butanediamine]
IC50 [1]: 537 nM
IC50 [2]: 67.6 nM
pIC50 [3, 6]: 6.30 to 7.00
pIC50 [3, 7]: 6.85
IC50 at 96 h [4]: > 100 µM

N#Cc1ccc2nc(CN(CCCCN)C3CCCc4cccnc43)cn2c1 (stereo not shown) [Example 9, 2-{[(4-Aminobutyl)(5,6,7,8-tetrahydro-8-quinolinyl)amino]methyl}imidazo [1,2-a]pyridine-6-carbonitrile]
IC50 [1]: 372 nM
IC50 [2]: 112 nM
pIC50 [3, 6]: 6.30 to 7.00
pIC50 [3, 7]: 6.95
IC50 at 96 h [4]: > 100 µM

Cc1cccn2cc(CN(CCCCN)C3CCCc4cccnc43)nc12 (stereo not shown) [Example 2, N-[(8-Methylimidazo[1,2-a]pyridin-2-yl)methyl]-N-(5,6,7,8-tetrahydro-8-quinolinyl)-1,4-butanediamine]
IC50 [1]: 324 nM
IC50 [2]: 53.7 nM
IC50 [3, 8]: 0.023 µM
pIC50 [3, 9]: > 7.00
IC50 at 96 h [4]: > 100 µM

c1cc(CN2CCCNCCNCCCNCC2)ccc1CN1CCCNCCNCCCNCC1 [AMD-3100]
T-tropic HIV viral load [5]: significantly reduce T-tropic HIV viral load

Cc1cc(Br)c2nc(CN(CCCCN)C3CCCc4cccnc43)cn2c1 (stereo not shown) [Example 20, N-[(8-Bromo-6-methylimidazo[1,2-a]pyridin-2-yl)methyl]-N-(5,6,7,8-tetrahydro-8-quinolinyl)-1,4-butanediamine]
IC50 [1]: 2290 nM
IC50 [2]: 135 nM
pIC50 [3, 6]: 6.30 to 7.00
pIC50 [3, 7]: 6.51
IC50 at 96 h [4]: > 100 µM

NCCCCN(Cc1cn2c(N3CCNCC3)cccc2n1)C1CCCc2cccnc21 (stereo not shown) [Example 22, N-{[5-(1-piperazinyl)imidazo[1,2-a]pyridin-2-yl]methyl}-N-(5,6,7,8-tetrahydro-8-quinolinyl)-1,4-butanediamine]
IC50 [1]: 2.82 nM
IC50 [2]: 2.88 nM
pIC50 [3, 6]: > 7.00
pIC50 [3, 7]: 8.66
IC50 at 96 h [4]: > 100 µM

Cc1ccn2cc(CN(CCCCN)C3CCCc4cccnc43)nc2c1 (stereo not shown) [Example 3, N-[(7-Methylimidazo[1,2-a]pyridin-2-yl)methyl]-N-(5,6,7,8-tetrahydro-8-quinolinyl)-1,4-butanediamine]
IC50 [1]: 813 nM
IC50 [2]: 759 nM
pIC50 [3, 6]: 6.30 to 7.00
pIC50 [3, 7]: 6.65
IC50 at 96 h [4]: > 100 µM

Cc1cccc2nc(CN(CCCCN)C3CCCc4cccnc43)cn12 (stereo not shown) [Example 5, N-[(5-Methylimidazo[1,2-a]pyridin-2-yl)methyl]-N-(5,6,7,8-tetrahydro-8-quinolinyl)-1,4-butanediamine]
IC50 [1]: 39.8 nM
IC50 [2]: 12 nM
pIC50 [3, 6]: > 7.00
pIC50 [3, 7]: 7.77
IC50 at 96 h [4]: > 100 µM
